In the supplement of paper PMC10307832:

Columns and labels:
Experiment in all cases: relative viability (nuclei count vs DMSO), 5 days (fraction); higher = more cells survive
Pazopanib + Luminespib = compound: Cc1ccc(Nc2nccc(N(C)c3ccc4c(C)n(C)nc4c3)n2)cc1S(N)(=O)=O [Pazopanib] + CCNC(=O)c1noc(-c2cc(C(C)C)c(O)cc2O)c1-c1ccc(CN2CCOCC2)cc1 [Luminespib] (partner 0.01 µM)
How it was run: (§1)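 Lung cancer cell lines in 1536-well plates got either a single drug or a fixed anchor-drug dose together with five library-drug doses (not always all listed) in √10 steps, by pin tool, on the day after seeding. Nuclei were counted after 5 days, and relative viability is the treated-to-vehicle ratio of nuclei counts. Values are medians of duplicate plates.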

Pazopanib + Phenformin = compound: Cc1ccc(Nc2nccc(N(C)c3ccc4c(C)n(C)nc4c3)n2)cc1S(N)(=O)=O [Pazopanib] + N=C(N)NC(=N)NCCc1ccccc1 [Phenformin] (partner 250 µM)
How it was run: as §1

Ponatinib + Lapatinib = compound: Cc1ccc(C(=O)Nc2ccc(CN3CCN(C)CC3)c(C(F)(F)F)c2)cc1C#Cc1cnc2cccnn12 [Ponatinib] + CS(=O)(=O)CCNCc1ccc(-c2ccc3ncnc(Nc4ccc(OCc5cccc(F)c5)c(Cl)c4)c3c2)o1 [Lapatinib] (partner 2 µM)
How it was run: as §1

Pazopanib + Palbociclib = compound: Cc1ccc(Nc2nccc(N(C)c3ccc4c(C)n(C)nc4c3)n2)cc1S(N)(=O)=O [Pazopanib] + CC(=O)c1c(C)c2cnc(Nc3ccc(N4CCNCC4)cn3)nc2n(C2CCCC2)c1=O [Palbociclib] (partner 0.5 µM)
How it was run: as §1

Row | Cell Line | relative viability (Pazopanib + Luminespib; first compound 0.01 µM) | relative viability (Pazopanib + Luminespib; first compound 0.03162 µM) | relative viability (Pazopanib + Luminespib; first compound 0.1 µM) | relative viability (Pazopanib + Luminespib; first compound 0.3162 µM) | relative viability (Pazopanib + Luminespib; first compound 1 µM) | relative viability (Pazopanib + Phenformin; first compound 0.01 µM) | relative viability (Pazopanib + Phenformin; first compound 0.03162 µM) | relative viability (Pazopanib + Phenformin; first compound 0.1 µM) | relative viability (Pazopanib + Phenformin; first compound 0.3162 µM) | relative viability (Pazopanib + Phenformin; first compound 1 µM) | relative viability (Ponatinib + Lapatinib; first compound 0.002 µM) | relative viability (Ponatinib + Lapatinib; first compound 0.006325 µM) | relative viability (Ponatinib + Lapatinib; first compound 0.06325 µM) | relative viability (Ponatinib + Lapatinib; first compound 0.2 µM) | relative viability (Pazopanib + Palbociclib; first compound 0.01 µM) | relative viability (Pazopanib + Palbociclib; first compound 0.03162 µM) | relative viability (Pazopanib + Palbociclib; first compound 0.1 µM) | relative viability (Pazopanib + Palbociclib; first compound 0.3162 µM) | relative viability (Pazopanib + Palbociclib; first compound 1 µM)
1 | NCI-H838 | 0.351 | 0.351 | 0.282 | 0.21 | 0.322 | 0.548 | 0.648 | 0.587 | 0.647 | 0.753 | 0.911 | 1.04 | 1.03 | 0.813 | 0.181 | 0.216 | 0.243 | 0.258 | 0.246
2 | NCI-H2087 | 0.162 | 0.174 | 0.171 | 0.165 | 0.159 | 0.373 | 0.464 | 0.445 | 0.483 | 0.513 | 0.708 | 0.781 | 0.876 | 0.672 | 0.21 | 0.223 | 0.275 | 0.271 | 0.256
3 | BEN |  | 0.328 | 0.246 | 0.364 | 0.352 |  | 0.281 | 0.288 | 0.266 | 0.238 | 0.503 | 0.509 | 0.721 | 0.628 | 0.447 | 0.467 | 0.498 | 0.506 | 0.482
4 | EKVX | 0.987 | 0.763 | 0.728 | 0.873 | 0.857 | 0.227 | 0.224 | 0.207 | 0.225 | 0.234 | 0.222 | 0.217 | 0.349 | 0.234 | 0.378 | 0.461 | 0.395 | 0.368 | 0.423
5 | LXF-289 | 0.74 | 0.713 | 0.69 | 0.67 | 0.729 | 0.563 | 0.554 | 0.507 | 0.533 | 0.525 | 0.855 | 0.895 | 0.894 | 0.859 | 0.591 | 0.581 | 0.629 | 0.571 | 0.598
6 | ABC-1 | 0.627 | 0.672 |  | 0.41 | 0.961 | 0.23 | 0.242 |  | 0.196 | 0.269 | 1.1 | 1.17 | 1.2 | 0.864 | 0.407 | 0.799 | 0.788 | 1.13 | 0.784
7 | NCI-H661 | 0.926 | 0.927 | 0.958 | 1.02 | 0.953 | 0.275 | 0.281 | 0.255 | 0.272 | 0.316 | 0.437 | 0.523 | 0.592 | 0.361 | 0.376 | 0.386 | 0.427 | 0.422 | 0.396
8 | NCI-H1650 | 0.195 | 0.189 | 0.235 | 0.195 | 0.187 | 0.405 | 0.559 | 0.418 | 0.537 | 0.464 | 0.735 | 0.811 | 0.636 | 0.62 | 0.333 | 0.433 | 0.375 | 0.349 | 0.393
9 | NCI-H2085 | 0.461 | 0.41 | 0.5 | 0.434 | 0.425 | 0.624 | 0.835 | 0.683 | 0.694 | 0.833 | 0.733 | 0.815 | 0.843 | 0.879 | 0.483 | 0.462 | 0.487 | 0.48 | 0.462
10 | NCI-H1944 |  | 0.784 | 0.771 | 0.86 | 0.857 |  | 0.191 | 0.218 | 0.227 | 0.228 | 0.775 | 0.807 | 0.915 | 0.849 | 0.287 | 0.357 | 0.33 | 0.332 | 0.41
11 | LC-2-ad | 0.992 | 1.06 | 1.02 | 1.03 | 1.23 | 0.618 | 0.649 | 0.584 | 0.689 | 0.685 | 0.969 | 0.697 | 0.49 | 0.495 | 0.552 | 0.459 | 0.56 | 0.45 | 0.487
12 | COR-L 105 | 1.06 | 0.539 | 0.765 | 0.909 | 0.787 | 0.446 | 0.553 | 0.52 | 0.724 | 0.636 | 0.385 | 0.369 | 0.374 | 0.347 | 0.364 | 0.363 | 0.413 | 0.437 | 0.438
13 | NCI-H1355 | 0.695 | 0.709 | 0.816 | 0.675 | 0.838 | 0.42 | 0.481 | 0.406 | 0.455 | 0.461 | 0.939 | 0.947 | 1.17 | 1.02 | 0.33 | 0.4 | 0.426 | 0.407 | 0.45
14 | H3255 | 0.854 | 0.883 | 0.869 | 0.8 | 0.982 | 0.298 | 0.33 | 0.365 | 0.306 | 0.367 | 0.222 | 0.268 | 0.263 | 0.21 | 0.314 | 0.315 | 0.349 | 0.328 | 0.361
15 | NCI-H1993 |  | 0.728 | 0.885 | 0.885 | 0.913 |  | 0.457 | 0.502 | 0.591 | 0.496 | 0.885 | 0.78 | 0.872 | 0.872 |  | 0.617 | 0.631 | 0.517 | 0.616
16 | NCI-H1734 | 0.18 | 0.207 | 0.182 | 0.179 | 0.208 | 0.353 | 0.416 | 0.417 | 0.495 | 0.418 | 0.955 | 0.991 | 1.09 | 0.888 | 0.33 | 0.369 | 0.353 | 0.378 | 0.344
17 | HOP-62 | 0.79 | 0.89 | 0.915 | 0.953 | 0.981 | 0.654 | 0.627 | 0.734 | 0.673 | 0.665 | 0.929 | 0.987 | 0.856 | 0.91 | 0.436 | 0.472 | 0.424 | 0.493 | 0.46
